In patent publication US20040121965A1, “Method of treating resistant tumors” (Wyeth Holdings Corporation, priority 2002, published 2004):
Where two headings read alike, the source gives them in different places.

Key:
KB-8-5 (MDR1+) = assay: Cell survival assay (SRB), KB-8-5 (MDR1+); conditions: for IC50: Homo sapiens, MDR1, read-out: In vitro IC50 (nM) KB85
KB-V1 (MDR1++) = assay: Cell survival assay (SRB), KB-V1 (MDR1++); conditions: for IC50: Homo sapiens
KB-3-1 = assay: Cell survival assay (SRB), KB-3-1; assay type: cell-based, human; conditions: Homo sapiens, KB 3-1, KB-3-1 cells (paclitaxel-sensitive parent); read-out: In vitro IC50 (nM) KB-3-1
Procedure, shortened: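 Growth inhibition (IC50) is derived from SRB-measured protein content after a 3-day, duplicate exposure to serially diluted compound.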

[1] = read-out: In vitro IC50 (nM) KBV1

Row | Structure (SMILES) | Ratio KB85/KB (KB-8-5 (MDR1+)) | IC50 (KB-8-5 (MDR1+)) [nM] | Ratio KBV1/KB (KB-V1 (MDR1++)) | IC50 (KB-V1 (MDR1++); [1]) [nM] | IC50 (KB-3-1) [nM] | IC50 (KB-V1 (MDR1++); read-out: In vitro IC50 KBV1) [nM]
1 | CCOC(=O)/C(C)=C/[C@H](C(C)C)N(C)C(=O)[C@@H](NC(=O)[C@@H](NC)C(C)(C)c1ccccc1OC)C(C)(C)C [Example 54, 2-Methoxy-N,β,β-trimethyl-L-phenylalanyl-N^1-[(1S,2E)-4-ethoxy-1-isopropyl-3-methyl-4-oxo-2-butenyl]-N^1,3-dimethyl-L-valinamide] | 4.8 | 602 | 16.6 | 2090 | 126 | 
2 | CCOC(=O)/C(C)=C/[C@H](C(C)C)N(C)C(=O)[C@@H](NC(=O)[C@@H](NC)C(C)(C)c1cc2ccccc2s1)C(C)(C)C [Example 27, 3-(1-Benzothien-2-yl)-N-methylvalyl-N^1-[(1S,2E)4-ethoxy-1-isopropyl-3-methyl4-oxo-2-butenyl]-N^1,3-dimethyl-L-valinamide] | 4.8 | 1580 | 9.1 | ≥ 3000 | 331 | 
3 | CN[C@H](C(=O)N[C@H](C(=O)N(C)[C@H](/C=C(\C)C(=O)O)C(C)C)C(C)(C)C)[C@H](C)c1ccccc1 [Example 154, (βR)-N,β-dimethyl-L-phenylalanyl-N^1-[(1S,2E)-3-carboxy-1-isopropylbut-2-enyl]-N^1,3-dimethyl-L-valinamide] | 1.3 | 584 | 6.8 | > 3000 | 438 | 
4 | CN[C@H](C(=O)N[C@@H](C(=O)N(C)[C@H](/C=C(\C)C(=O)O)C(C)C)C(C)(C)F)C(C)(C)c1ccccc1 [Example 148, N,β,β-trimethyl-L-phenylalanyl-N^1-[(1S,2E)-3-carboxy-1-isopropylbut-2′enyl]-3-fluoro-N^1-methyl-D-valinamide] | 2.2 | 193 | 34.1 | > 3000 | 88 | 
5 | CCOC(=O)/C(C)=C/[C@H](C(C)C)N(C)C(=O)[C@@H](NC(=O)[C@@H](NC)C(C)(C)c1ccc(C)c(C)c1)C(C)(C)C [Example 13a, N,β, β,3,4-Pentamethyl-L-phenylalanyl-N^1-[(1S,2E)4-ethoxy-1-isopropyl-3-methyl-4-oxo-2-butenyl]-N^1,3-dimethyl-L-valinamide] | 24.0 | 219 | 191.0 | 1740 | 9.1 | 
6 | CN[C@H](C(=O)N[C@H](C(=O)N(C)[C@H](/C=C(\C)C(=O)O)C(C)C)C(C)(C)C)C(C)(C)c1ccc(C(=O)O)cc1 [Example 45, 4-carboxy-N,β,β-trimethylphenylalanyl-N^1-[(1S,2E)-3-carboxy-1-isopropylbut-2-enyl]-N^1,3-dimethyl-L-valinamide] | 2.3 | 1530 |  |  | 680 | > 3000
7 | CCC[C@H](NC(=O)[C@@H](NC)C(C)(C)c1ccccc1)C(=O)N(C)[C@H](/C=C(\C)C(=O)O)C(C)C.O=C(O)C(F)(F)F [Example 97, N,β,β-trimethyl-L-phenylalanyl-N^1-[(1S,2E)-3-carboxy-1-isopropylbut-2-enyl]-N^1-methyl-L-norvalinamide Trifluoroacetic Acid] | 1.3 | 19 | 38.3 | 575 | 15 | 
8 | CCCCCC(C)(C)[C@H](NC)C(=O)N[C@H](C(=O)N(C)[C@H](/C=C(\C)C(=O)O)C(C)C)C(C)(C)C [Example 50, (2E,4S)-4-[((2S)-2-{[(2S)-3,3-dimethyl-2-(methylamino)octanoyl]amino}-3,3-dimethylbutanoyl)(methyl)amino]-2,5-dimethyl-2-hexenoic acid] | 2.2 | 19 | 58.9 | 513 | 8.7 | 
9 | CN[C@H](C(=O)N[C@H](C(=O)N(C)[C@H](/C=C(\C)C(=O)O)C(C)C)C(C)(C)O)C(C)(C)c1ccccc1 [Example 156, N,β,β-trimethyl-L-phenylalanyl-N^1-[(1S,2E)-3-carboxy-1-isopropylbut-2-enyl]-3-hydroxy-N^1-methyl-L-valinamide] | 1.6 | 95 | 51.7 | > 3000 | 58 | 
10 | CN[C@H](C(=O)N[C@@H](CC(C)C)C(=O)N(C)[C@H](/C=C(\C)C(=O)O)C(C)C)C(C)(C)c1ccccc1.O=C(O)C(F)(F)F [Example 96, N,β,β-trimethyl-L-phenylalanyl-N^1-[(1S,2E)-3-carboxy-1-isopropylbut-2-enyl]-N^1-methyl-L-leucinamide Trifluoroacetic Acid] | 1.6 | 30 | 76.1 | 1440 | 19 | 
11 | CCOC(=O)/C(C)=C/[C@H](C(C)C)N(C)C(=O)[C@@H](NC(=O)[C@H](NC)C(C)(C)c1cccc(C)c1)C(C)(C)C [Example 7b, N,β,β,3-tetramethyl-D-phenylalanyl-N^1-[(1S,2E)-4-ethoxy-1-isopropyl-3-methyl4-oxo-2-butenyl]-N^1,3-dimethyl-L-valinamide] | 6.5 | 1700 | 11.4 | ≥ 3000 | 263 | 
12 | CN[C@H](C(=O)N[C@H](C(=O)N(C)[C@H](/C=C(\C)C(=O)O)C(C)C)C(C)(C)C)C(C)(C)c1ccsc1 [Example 23, N-Methyl-3-thien-3-yl-L-valyl-N^1-[(1S,2E)-3-carboxy-1-isopropylbut-2-enyl]-N^1,3-dimethyl-L-valinamide] | 3.1 | 6.6 | 345.0 | 724 | 2.1 | 
13 | CN[C@H](C(=O)N[C@H](C(=O)N(C)[C@H](/C=C(\C)C(=O)NCCC#N)C(C)C)C(C)(C)C)C(C)(C)c1ccccc1 [Example 109, N,β,β-trimethyl-L-phenylalanyl-N^1-{(1S,2E)-4-[(2-cyanoethyl)amino]-1-isopropyl-3-methyl-4-oxo-2-butenyl}-N^1,3-dimethyl-L-valinamide] | 3.4 | 435 | 23.3 | ≥ 3000 | 129 | 
14 | CN[C@H](C(=O)N[C@H](C(=O)N(C)[C@H](/C=C(\C)C(=O)O)C(C)C)C(C)(C)C)C(C)(C)c1ccc(C(=O)c2ccccc2)cc1 [Example 91, 4-benzoyl-N,β,β-trimethyl-L-phenylalanyl-N^1-[(1S,2E)-3-carboxy-1-isopropylbut-2-enyl]-N^1,3-dimethyl-L-valinamide] | 4.0 | 6.8 | 308.7 | 525 | 1.7 | 
15 | CN[C@H](C(=O)N[C@H](C(=O)N(C)[C@H](/C=C(\C)C(=O)O)C(C)C)C(C)(C)C)C(C)(C)c1ccccc1OC [Example 55, 2-Methoxy-N,β,β-trimethyl-L-phenylalanyl-N^1-[(1S,2E)-3-carboxy-1-isopropyl-2-butenyl]-N^1,3-dimethyl-L-valinamide] | 2.6 | 4.4 | 112.1 | 190 | 1.7 | 
16 | CCN(C(=O)[C@@H](NC(=O)[C@@H](NC)C(C)(C)c1ccccc1)C(C)(C)C)[C@H](/C=C(\C)C(=O)O)C(C)C.O=C(O)C(F)(F)F [Example 94, N,β,β-trimethyl-L-phenylalanyl-N^1-[(1S,2E)-3-carboxy-1-isopropylbut-2-enyl]-N^1-ethyl-3-methyl-L-valinamide Trifluoroacetic Acid] | 1.8 | 197 | 27.5 | ≥ 3000 | 109 | 
17 | CCCCCC(C)(C)[C@@H](NC)C(=O)N[C@H](C(=O)N(C)[C@H](/C=C(\C)C(=O)O)C(C)C)C(C)(C)C [Example 51, (2E,4S)-4-[((2S)-2-{[(2R)-3,3-dimethyl-2-(methylamino)octanoyl]amino}-3,3-dimethylbutanoyl)(methyl)amino]-2,5-dimethyl-2-hexenoic Acid] | 1.6 | 363 | 13.4 | ≥ 3000 | 224 | 
18 | CN[C@H](C(=O)N[C@@H](Cc1ccccc1)C(=O)N(C)[C@H](/C=C(\C)C(=O)O)C(C)C)C(C)(C)c1ccccc1 [Example 137, (E,4S)-2,5-dimethyl4-[methyl((2S)-2-{[(2S)-3-methyl-2-(methylamino)-3-phenylbutanoyl]amino}-3-phenylpropanoyl)amino]-2-hexenoic Acid] | 1.7 | 1580 | 3.2 | ≥ 3000 | 934 | 
19 | CN[C@H](C(=O)N[C@H](C(=O)N(C)[C@H](/C=C(\C)C(=O)O)C(C)C)[C@H](C)OC)C(C)(C)c1ccccc1 [Example 88, N,β,β-trimethyl-L-phenylalanyl-N^1-[(1S,2E)-3-carboxy-1-isopropyl-2-butenyl]-N^1,O-dimethyl-L-allothreoninamide] | 2.0 | 1740 | 3.4 | ≥ 3000 | 871 | 
20 | CCOC(=O)/C(C)=C/[C@H](C(C)C)N(C)C(=O)[C@@H](NC(=O)[C@@H](NC)C(C)(C)c1cc(C)cc(C)c1)C(C)(C)C [Example 16a, N,β,β,3,5-Pentamethyl-L-phenylalanyl-N^1-[(1S,2E)-4-ethoxy-1-isopropyl-3-methyl-4-oxo-2-butenyl]-N^1,3-dimethyl-L-valinamide] | 20.0 | 302 | 120.5 | 1820 | 15.1 | 
